Results published in US12648923B2, “Dietary butyrate and its uses” (SOCIETE DES PRODUITS NESTLE S.A., priority 2019, dated 2026).

Biological target: T1, porcine pancreatic lipase (from pancreatin) (Sus scrofa, UniProt P00591)
T1 construct: pancreatin (Porcine, USP×8, P7585); purchased Sigma-Aldrich P7585; host or cells: porcine pancreas extract (pancreatin)
T1 sequence (P00591 1-450): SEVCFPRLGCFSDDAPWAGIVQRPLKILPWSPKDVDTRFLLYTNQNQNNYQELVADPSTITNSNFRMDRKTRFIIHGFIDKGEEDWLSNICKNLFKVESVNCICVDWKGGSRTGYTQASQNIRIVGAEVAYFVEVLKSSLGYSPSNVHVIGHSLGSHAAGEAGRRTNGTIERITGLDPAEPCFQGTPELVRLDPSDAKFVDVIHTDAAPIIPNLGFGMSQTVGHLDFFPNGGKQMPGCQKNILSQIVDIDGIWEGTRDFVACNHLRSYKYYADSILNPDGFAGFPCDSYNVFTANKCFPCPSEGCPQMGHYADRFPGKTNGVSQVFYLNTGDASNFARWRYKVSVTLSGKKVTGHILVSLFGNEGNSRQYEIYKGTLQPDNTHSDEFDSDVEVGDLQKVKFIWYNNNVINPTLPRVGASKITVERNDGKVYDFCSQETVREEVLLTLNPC
T1 sequence (P02703 23-112 partner): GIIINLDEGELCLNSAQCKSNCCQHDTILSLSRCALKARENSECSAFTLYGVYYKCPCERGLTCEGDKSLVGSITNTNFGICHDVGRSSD
Assay: In vitro digestion in simulated intestinal fluid (SIF), pH-stat
Format: in vitro ADME
Details: SIF alone; emulsion with 200 mg fat; pH 6.8, 37° C.
Description: 10 wt % oil in water emulsions stabilised by 0.3 wt % polyoxyethylene sorbitan mono-oleate (Tween® 80) were prepared by mixing the Tween 80 into the oil phase at 40° C., then mixing with the water phase using a magnetic stirrer. An emulsion was then created using a Hielscher UP 400S ultrasonic probe homogeniser equipped with a 5 mm diameter rod-like probe by applying 100% amplitude at 100% cycle for 2 minutes whilst the sample was cooled using ice water.
The lipid emulsion (2 mL) containing 200 mg of fat was subjected to gastrointestinal in vitro lipolysis. […]
The intestinal digestion step was performed in the pH stat where the pH was kept constant at 6.8 by addition of NaOH (0.05 M). […] During the intestinal phase of digestion, the kinetics of digestion were followed using a pH-stat (TIM856, Radiometer) technique and expressed as titratable acid (rather than fatty acid) that was calculated by the equation: TA=VNaOH×0:05×1000 […]
Since the digestion of dietary lipids involves lipases of both gastric and intestinal origin, lipid digestibility was assessed using two digestion models i) simulated intestinal fluid (SIF) with porcine pancreatic lipase (PPL) and ii) sequential digestion in simulated gastric fluid (SGF) with rabbit gastric lipase (RGL) followed by simulated intestinal fluid (SIF) with porcine pancreatic lipase (PPL).

CCCC(=O)OCC(COC(=O)CCC)OC(=O)CCC [tributyrin]
initial rate of lipolysis: 223 ± 59 µmol/min
